Among the data in US5789440A, “5,6-dihydropyrone derivatives as protease inhibitors and antiviral agents” (Warner-Lambert Company, priority 1994, dated 1998) are EC50 and IC50 values, retold here.

The test system of the first assay is HIV1iiib in H9 cells. As to the kind of experiment: Antiviral activity in H9 cells (acute HIV-1 infection, reverse transcriptase assay). To be noted: Human immunodeficiency virus 1, multiplicity of infection 0.01, 0.1% DMSO, read-out: Concentration for 50% Protection. The assay is classed as cell-based. The method, then: Using the general methods of Pauwels et al., (J. Virol. Methods, 16, 171-185, 1987) and Mann et al. (AIDS Research and Human Retroviruses, 253-255, 1989 (anti-viral assays of active HIV-1 infection were performed in the H9 cell line. Cultures were batch infected in 1 ml of RPM1 1640 media/10% fetal calf serum containing 10^5 infectious doses of HIV1iiib for an effective multiplicity of infection of 0.01. After 2 hours of viral absorption, cells were washed once and palted in 96-wellmicrotiter plates at a density of 10^4 cells per well. Test compounds were added to produce the desired concentration of drug and 0.1% DMSO in a final volume of 200 μl. Uninfected parallel cultures were maintained for XTT cytotoxicity assay at 7 days post infection. Cultures were tested for viral replication by reverse transcriptase assay at 4 and 7 days post infection.
Regarding `CC(C)CCC1(c2ccccc2)CC(O)=C(SCc2ccccc2Cl)C(=O)O1` (racemic) [Example 94, 3-(2-Chlorophenylmethylthio)-5,6-dihydro-4-hydroxy-6-(3-methylbutyl)-6-phenyl-2H-pyran-2-one], the EC50 was 29000 nM. With `CC(C)CCC1(c2ccccc2)CC(O)=C(SCc2ccccc2-c2ccccc2)C(=O)O1` (racemic) [Example 95, 3-(Biphen-2-ylmethylthio)-5,6-dihydro-4-hydroxy-6-(3-methylbutyl)-6-phenyl-2H-pyran-2-one], the EC50 stood at 39000 nM. Turning to `O=C1OC(CCc2ccccc2)(c2ccccc2)CC(O)=C1Cc1ccccc1C(F)(F)F` (centres unmarked) [Example 114, 5,6-Dihydro-4-hydroxy-6-phenyl-6-(2-phenylethyl)-3-[(2-trifluoromethylphenyl)methyl]-2H-pyran-2-one], the EC50 was found to be 26000 nM.

Still in this assay, the particulars now being: multiplicity of infection 0.01, 0.1% DMSO, read-out: Concentration for 50% Protection.
For “5,6-Dihydro-4-hydroxy-3-[(3-methoxyphenyl)methyl]-6-phenyl-6-(2-phenylethyl)-2H-pyran-2-one [Example 119]”, the EC50 amounted to 59000 nM.

The target in another assay is T1, HIV-1 Protease (Human immunodeficiency virus type 1 group M subtype B, UniProt P04585).
T1 construct: HIV-1 Protease; purchased Bachem Bioscience Inc
Briefly: HIV protease inhibition (undecapeptide substrate cleavage, HPLC). To be noted: 37° C., 5 min, 40 μM substrate, pH 4.7, 2% DMSO, read-out: 50% INHIBITION CONCENTRATION
In kind it is biochemical. The method, then:
1.0 mM dithiothreitol (DTT) was prepared fresh daily in 0.1% polyethylene glycol (mw 8000) 80 mM NaOAc, 160 mM NaCl, 1.0 mM EDTA, and brought to pH 4.7 with HCl.
The enzyme is obtained from Bachem Bioscience Inc. The undiluted enzyme is thawed from -80° C. and diluted 50-fold with DTT buffer. The solution is always kept at 0° C. on ice water and used in the experiment within 20 minutes after thawing.
Substrate III from Bachem Bioscience Inc. is the undecapeptide H-His-Lys-Ala-Arg-Val-Leu-p-Nitrophenylalanine-Glu-Ala-Norleucine-Ser-NH2 (>97% purity). A 200 μM stock solution in DTT buffer is prepared and stored on ice. Substrate solution is prepared fresh daily.
10 mM inhibitor (I) in dimethyl sulfoxide (DMSO) is diluted to 200 μM with DTT buffer. From the 200 μM stock solution is made a 10 μM stock solution with 2% DMSO in DTT buffer. The two inhibitor solutions are used to make final [I] =100, 50, 20, 10, 5, 2, 1, 0.5 and 0 μM with 2% DMSO in DTT buffer in each reaction well (total inhibitor volume of 50 μl).
To each reaction well is added 20 μl of substrate (final concentration of 40 μM), 50 μl of inhibitor (at a concentration such that final dilution will produce the test concentration) and 20 μl of DTT buffer. The reaction plate (96 wells) is incubated at 37° C. for at least 5 minutes.
10 μl of the diluted protease is added to the reaction well while the reaction plate is shaking. Once shaken for 10 seconds, the plate is returned to the heating block at 37° C. (final reaction volume 100 μl.)
The reaction is incubated for 5 minutes at 37° C. The reaction is stopped by placing the reaction plate on the shaker and adding 20 μl of 10% trifluoroacetic acid (TFA) and shaking for 10 seconds. The amount of proteolysis is then determined by separation of noncleaved substrate and two cleaved products with reverse-phase HPLC, while measuring absorbance at 220 nm to determine the relative peak areas of the three components. The relative peak areas are used to calculate % conversion to product as a function of inhibitor concentration. The data are plotted as % Control (the ratio of % conversion in the presence and absence of inhibitor×100) versus inhibitor concentration and fitted with the equation Y=100/1+(X/IC50)^A, where IC50 is the inhibitor concentration at 50% inhibition and A is the slope of the inhibition curve.
Turning to “5,6-Dihydro-4-hydroxy-3-[(3-methoxyphenyl)methyl]-6-phenyl-6-(2-phenylethyl)-2H-pyran-2-one [Example 119]”, the IC50 is 97 nM. On to `O=C1OC(c2ccccc2)CC(O)=C1SCCc1ccccc1` (racemic) [Example 2, 5,6-Dihydro-4-hydroxy-6-phenyl-3-[(2-phenylethyl)thio]-2H-pyran-2-one], for which the IC50 turned out to be 1900 nM. `CC(C)CC1(c2ccccc2)CC(O)=C(SCc2ccccc2)C(=O)O1` (racemic) [Example 5, 5,6-Dihydro-4-hydroxy-6-(2-methylpropyl)-6-phenyl-3-[(phenylmethyl)thio]-2H-pyran-2-one]: the IC50 was found to be 400 nM. Still for that read-out and setting: next, `CCCCC1(c2ccc(-c3ccccc3)cc2)CC(O)=C(SCCc2ccccc2)C(=O)O1` (racemic) [Example 22, 6-[1,1'-Biphenyl]-4-yl-6-butyl-5,6-dihydro-4-hydroxy-3-[(2-phenylethyl)thio]-2H-pyran-2-one]: 1100 nM. Still for that read-out and setting: then `CCCCC1(c2ccccc2)CC(O)=C(SCc2ccccc2)C(=O)O1` (racemic) [Example 29, 6-Butyl-5,6-dihydro-4-hydroxy-6-phenyl-3-[(phenylmethyl)thio]-2H-pyran-2-one], with 260 nM; and `CC(C)CCC1(c2ccccc2)CC(O)=C(SCc2ccccc2)C(=O)O1` (racemic) [Example 35, 5,6-Dihydro-4-hydroxy-6-(3-methylbutyl)-6-phenyl-3-[(phenylmethyl)thio]-2H-pyran-2-one], with 120 nM; and `O=C1OC(CCc2ccccc2)(c2ccccc2)CC(O)=C1SCc1ccccc1` (racemic) [Example 39, 5,6-Dihydro-4-hydroxy-6-phenyl-6-(2-phenylethyl)-3-[(phenylmethyl)thio]-2H-pyran-2-one], with 50 nM. The same measure, in the same setting: then `O=C1OC(CCc2ccccc2)(c2ccccc2)CC(O)=C1SCCc1ccccc1` (racemic) [Example 40, 5,6-Dihydro-4-hydroxy-6-phenyl-6-(2-phenylethyl)-3-[(2-phenylethyl)thio]-2H-pyran-2-one], with 60 nM; and `O=C1OC(CCc2ccc(Cl)c(Cl)c2)(c2ccccc2)CC(O)=C1SCc1ccccc1` (racemic) [Example 44, 6-[2-(3,4-Dichlorophenyl)ethyl]-5,6-dihydro-4-hydroxy-6-phenyl-3-[(phenylmethyl)thio]-2H-pyran-2-one], with 320 nM; and `O=C1OC(CC2CCCC2)(c2ccccc2)CC(O)=C1SCc1ccccc1` (racemic) [Example 50, 6-Cyclopentylmethyl-5,6-dihydro-4-hydroxy-6-phenyl-3-[(phenylmethyl)thio]-2H-pyran-2-one], with 88 nM. Turning to `O=C1OC2(CCCc3ccccc32)CC(O)=C1SCc1ccccc1` (racemic) [Example 52, 3,4-Dihydro-4'-hydroxy-5'-[(phenylmethyl)thio]-spiro[naphthalene-1(2H),2'-[2H]pyran]-6'(3'H)-one], the IC50 amounted to 2000 nM. In the case of `O=C(O)CCCCC1(c2ccccc2)CC(O)=C(SCCc2ccccc2)C(=O)O1` (racemic) [Example 56, 5-(3,6-Dihydro-4-hydroxy-6-oxo-2-phenyl-5-[(2-phenylethyl)thio]-2H-pyran-2-yl)pentanoic acid], the IC50 stood at 5 nM. Same read-out and setting: next, `O=C1OC(c2ccccc2)(c2ccncc2)CC(O)=C1SCCc1ccccc1` (racemic) [Example 57, 5,6-Dihydro-4-hydroxy-6-phenyl-3-[(2-phenylethyl)thio]-6-pyridin-4-yl-2H-pyran-2-one]: 650 nM; `O=C(CCCC1(c2ccccc2)CC(O)=C(SCc2ccccc2)C(=O)O1)NCc1ccccc1` (racemic) [Example 61, N-Benzyl-4-(3,6-dihydro-4-hydroxy-6-oxo-2-phenyl-5-[(phenylmethyl)thio]-2H-pyran-2-yl)butyramide]: 220 nM; `O=C1OC(CCc2ccccc2)(c2ccccc2)CC(O)=C1Sc1ccccc1` (racemic) [Example 71, 5,6-Dihydro-4-hydroxy-6-phenyl-6-(2-phenylethyl)-3-phenylthio-2H-pyran-2-one]: 100 nM.

In the case of `CC(C)CCC1(c2ccccc2)CC(O)=C(Sc2ccccc2C(C)C)C(=O)O1` (racemic) [Example 75, 5,6-Dihydro-4-hydroxy-6-(3-methylbutyl)-6-phenyl-3-(2-isopropyl-phenylthio)-2H-pyran-2-one], the IC50 is 28 nM. The same measure, in the same setting: next, `Cc1ccc(C)c(CSC2=C(O)CC(CCc3ccccc3)(c3ccccc3)OC2=O)c1` (racemic) [Example 90, 5,6-Dihydro-4-hydroxy-3-[(2,5-dimethylphenyl)methylthio]-6-phenyl-6-(2-phenylethyl)-2H-pyran-2-one]: 140 nM; `O=C1OC(CCc2ccccc2)(c2ccccc2)CC(O)=C1SCc1ccccc1-c1ccccc1` (racemic) [Example 92, 3-(Biphenyl-2-ylmethylthio)-5,6-dihydro-4-hydroxy-6-phenyl-6-(2-phenylethyl)-2H-pyran-2-one]: 270 nM; `CC(C)CCC1(c2ccccc2)CC(O)=C(SCc2ccccc2Cl)C(=O)O1` (racemic) [Example 94, 3-(2-Chlorophenylmethylthio)-5,6-dihydro-4-hydroxy-6-(3-methylbutyl)-6-phenyl-2H-pyran-2-one]: 220 nM. On the same count and under the same terms, then `CC(C)CCC1(c2ccccc2)CC(O)=C(SCc2ccccc2-c2ccccc2)C(=O)O1` (racemic) [Example 95, 3-(Biphen-2-ylmethylthio)-5,6-dihydro-4-hydroxy-6-(3-methylbutyl)-6-phenyl-2H-pyran-2-one], with 1090 nM; and `O=C1OC(c2ccc(OCc3ccccc3)cc2)CC(O)=C1SCCc1ccccc1` (centres unmarked) [Example 14], with 2500 nM; and `O=C1OC(c2ccccc2)(c2ccccc2)CC(O)=C1SCc1ccccc1` [Example 37, 5,6-Dihydro-4-hydroxy-6,6-diphenyl-3-[(phenylmethyl)thio]-2H-pyran-2-one], with 260 nM. As to `O=C1OC(c2ccccc2)(c2ccccc2)CC(O)=C1CCCc1ccccc1` [Example 66, 5,6-Dihydro-4-hydroxy-6,6-diphenyl-3-(3-phenylpropyl)-2H-pyran-2-one], the IC50 was determined as 390 nM. The same measure, in the same setting: next, `Cc1cccc(SC2=C(O)CC(c3ccccc3)(c3ccccc3)OC2=O)c1` [Example 70, 5,6-Dihydro-4-hydroxy-3-(3-methylphenylthio)-6,6-diphenyl-2H-pyran-2-one]: 110 nM. The same measure, in the same setting: next, `O=C1OC(CCc2ccccc2)(c2ccccc2)CC(O)=C1Cc1ccccc1C(F)(F)F` (centres unmarked) [Example 114, 5,6-Dihydro-4-hydroxy-6-phenyl-6-(2-phenylethyl)-3-[(2-trifluoromethylphenyl)methyl]-2H-pyran-2-one]: 79 nM.
